Drawing on ChEMBL document CHEMBL3526000 (Drug Metab Dispos, 2012), this text covers Drug metabolism for one compound.

The data set addresses T1, UDP-glucuronosyltransferase 2B4 (Homo sapiens, UniProt P06133).
T1 sequence (P06133 whole entry): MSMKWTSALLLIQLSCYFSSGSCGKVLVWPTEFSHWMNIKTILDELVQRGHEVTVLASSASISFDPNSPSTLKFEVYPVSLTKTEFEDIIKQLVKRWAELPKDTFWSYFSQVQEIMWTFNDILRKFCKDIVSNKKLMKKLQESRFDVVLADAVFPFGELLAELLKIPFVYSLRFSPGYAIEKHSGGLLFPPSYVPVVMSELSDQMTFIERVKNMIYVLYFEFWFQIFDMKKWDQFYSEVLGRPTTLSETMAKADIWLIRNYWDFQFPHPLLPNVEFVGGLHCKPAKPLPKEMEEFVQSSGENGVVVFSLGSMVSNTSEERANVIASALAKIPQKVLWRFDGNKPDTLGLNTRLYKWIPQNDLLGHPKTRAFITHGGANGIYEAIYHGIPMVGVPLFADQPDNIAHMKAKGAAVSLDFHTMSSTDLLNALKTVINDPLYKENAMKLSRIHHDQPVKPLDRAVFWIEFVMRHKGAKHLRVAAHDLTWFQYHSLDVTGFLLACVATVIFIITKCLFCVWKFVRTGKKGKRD
The data set can be described thus: Drug metabolism assessed as recombinant human UGT2B4 assessed as N-glucuronidation at 100 uM incubated for 60 mins by LC-MS/MS analysis. It counts as ADME. Particulars: recombinant enzyme, 1 h.

Structures are written as SMILES.

`O=C(CCCN1CCC(O)(c2ccc(Cl)cc2)CC1)c1ccc(F)cc1` [HALOPERIDOL]: the Drug metabolism result is reported as “metabolite_not_detected”.
